The text below walks through data of patent US20070218475A1, “Efficient drug screening for protein targets” (priority 2005, published 2007).

pIC50, pKd: −log10 of the molar value. Like-named read-outs stand apart in the source and are kept apart here.

Usually pIC50 stands for the negative decadic logarithm of the IC50, by convention in mol/L.

The target of data set [1] is T1, SmoA1 (Mus musculus, UniProt P56726, W539L).
T1 construct: expressed in transfected cells; host or cells: Cos-1
The experiment in a line: Photoaffinity labeling of SmoA1 with 125I-labeled PA-cyclopamine. In kind it is binding. Conditions: Cos-1 cells, SmoA1-Myc3. As for the experimental part: Photoaffinity labeling of Smo proteins: Cos-1 cells were cultured in 6-well plates and transfected with Smo-Myc3 or SmoA1-Myc3 expression vectors (1 μg/well). Two days after transfection, each well was incubated with 1 μCi of ^125I-labeled PA-cyclopamine (˜0.5 nM final concentration) in phenol red-free DMEM containing 0.5% bovine calf serum and various concentrations of the indicated compounds for 10 minutes at 37° C. Solvent vehicle alone (MeOH or DMSO) was used as a control in these experiments. PA-cyclopamine was then activated by 254 nm light (80,000 μJ/cm^2; Stratalinker UV-cross-linker) at room temperature. The cells were immediately chilled on ice, removed from the plates by scraping, and then directly lysed and sonicated in SDS-PAGE loading buffer. Total cell lysates were separated by SDS-PAGE and transferred to nitrocellulose for analysis by autoradiography and western blotting with an anti-Myc monoclonal antibody (9E10; Santa Cruz Biotechnology).

Data set [2] deals with Shh signaling. The experiment in a line: Shh-LIGHT2 assay for Hh pathway activation (Gli-dependent luciferase reporter). Type of data set: cell-based, mouse.
The target in data set [3] is T2, Smo (Mus musculus, UniProt P56726).
T2 construct: expressed in transfected cells; host or cells: Cos-1
The experiment in a line: Photoaffinity labeling of Smo with 125I-labeled PA-cyclopamine. Type of data set: binding.

For data set [4], the target named is T3, SmoA1-GFP (Mus musculus, UniProt P56726, W539L).
T3 construct: expressed in transfected cells; host or cells: C3H/10T1/2
The experiment in a line: Localization study of SmoA1-GFP in C3H/10T1/2 cells. Type of data set: cell-based. As for the experimental part: Localization studies of Smo and SmoA1 proteins: C3H/10T1/2 cells (ATCC) were cultured in DMEM containing 10% fetal bovine serum, 0.5 μg/ml ZnSO4 and β-mercaptoethanol (3.5 μL/500 ml DMEM) on glass coverslips (Bioptechs) in […]. […] To assess SmoA1 subcellular localization, either an ER marker (pECFP-ER; Clontech) or a Golgi marker (pECFP-Golgi; Clontech) was cotransfected with the SmoA1-YFP construct. […] Fluorescent protein illumination, detection and imaging was performed on a Zeiss inverted microscope outfitted with a Xenon light source (Lambda DG4; Sutter instruments), single or dual-pass filters (Chroma Technologies), and a cooled CCD camera (Roper Scientific). Images were acquired and processed with Metamorph software (Universal Images).

For data set [5] the following is noted: Keeler and Binns 1965; Berman et al. 2002; cited from earlier work.
The target in data set [6] is T4, SmoΔCRD (Mus musculus, UniProt P56726, DEL68-182).
T4 construct: expressed in transfected cells; host or cells: Cos-1
The experiment in a line: Fluorescence (BODIPY-cyclopamine) binding assay, Cos-1 cells expressing SmoΔCRD. The note with it: 150 nM KAAD-cyclopamine. An excerpt:
(§1) Preparation of Smo fusion proteins and deletion mutants: Both Smo-Myc3 and SmoA1-Myc3 are C-terminally fused to three consecutive Myc epitopes. […] Smo-GFP is comprised of green fluorescent protein fused to the C-terminus of Smo, and the fluorescent proteins in SmoA1-YFP, and SmoA1-GFP are similarly fused to the C-terminus of SmoA1. All constructs were generated by PCR and verified by DNA sequencing.
(§2) For flow cytometry experiments, the cells were then trypsinized, collected by centrifugation, resuspended in phenol red-free DMEM containing 0.5% bovine calf serum, and analyzed for green fluorescence (FACScan, Beckton Dickinson). […] Curve fitting analysis was performed with Kaleidograph (Synergy Software).

Data set [7] concerns the target T2, Smo. The experiment in a line: Fluorescence (BODIPY-cyclopamine) binding assay, Smo-expressing Cos-1 cells. As for the experimental part: as §2
Data set [8] deals with T5, SmoΔCT (Mus musculus, UniProt P56726).
T5 construct: expressed in transfected cells; host or cells: Cos-1
T5 sequence (P56726 33-555 limits assumed): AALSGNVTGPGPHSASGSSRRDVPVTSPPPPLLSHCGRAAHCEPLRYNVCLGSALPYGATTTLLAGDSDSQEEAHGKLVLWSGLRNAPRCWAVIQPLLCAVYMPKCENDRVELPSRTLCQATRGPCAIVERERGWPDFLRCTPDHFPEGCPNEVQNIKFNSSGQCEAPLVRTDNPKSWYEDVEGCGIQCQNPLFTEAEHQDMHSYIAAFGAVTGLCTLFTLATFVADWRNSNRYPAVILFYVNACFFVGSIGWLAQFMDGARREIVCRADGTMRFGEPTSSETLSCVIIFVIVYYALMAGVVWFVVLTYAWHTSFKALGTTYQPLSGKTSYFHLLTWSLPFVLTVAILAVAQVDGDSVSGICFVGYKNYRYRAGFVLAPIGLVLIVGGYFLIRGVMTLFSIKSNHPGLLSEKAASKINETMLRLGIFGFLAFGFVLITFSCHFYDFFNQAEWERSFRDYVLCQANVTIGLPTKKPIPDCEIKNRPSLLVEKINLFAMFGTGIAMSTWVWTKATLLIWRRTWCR
The experiment in a line: Fluorescence (BODIPY-cyclopamine) binding assay, Cos-1 cells expressing SmoΔCT. The note with it: 150 nM KAAD-cyclopamine.
Description: as §1, §2

For data set [9], the system named is Shh signaling. The note with it: read-out: IC50 in the Shh-LIGHT2 assay, Taipale et al. 2000; cited from earlier work.
Data set [10] concerns the target T6, SmoA1-Myc3 (Mus musculus, UniProt P56726, W539L).
T6 construct: expressed in transfected cells; host or cells: Cos-1
The experiment in a line: Endo H digestion of SmoA1-Myc3 (glycosylation state) in Cos-1 cells. The note with it: 5 μM KAAD-cyclopamine. Type of data set: cell-based. As for the experimental part: Endo H digestion of Smo proteins: Cos-1 cells were cultured in DMEM containing 10% fetal bovine serum in 6-well plates and transfected with Smo-Myc3 or SmoA1-Myc3 expression vectors (1 μg/well). One day after transfection, 5 μM KAAD-cyclopamine (in MeOH, final concentration 0.1%) was added to a well of the SmoA1-Myc3-expressing cells. Two days after transfection, each well of cells washed twice with PBS and lysed with 300 μL of RIPA buffer (50 mM Tris-Cl, pH 7.5, 150 mM NaCl, 1% NP-40, 0.5% sodium deoxycholate, 1 mM EDTA, 1 (μg/ml leupeptin, 1 μg/ml aprotinin, 0.2 mM phenylmethylsulfonyl fluoride). Cell lysates were centrifuged at 20,000×g for 15 minutes at 4° C., and the supernatant was then centrifuged at 100,000×g for 30 minutes. The supernatant of the second centrifugation was then used for glycosidase treatments and/or SDS-PAGE. For glycosidase treatments, 45 μL of cell lysate was denatured in 0.5% SDS, 1% β-mercaptoethanol for 10 minutes at room temperature and then incubated in 50 mM sodium citrate (pH 5.5) and 50 units of endoglycosidase-H (New England Biolabs) at 37° C. overnight. The anti-Myc monoclonal antibody was used for western blotting, following SDS-PAGE separation and protein transfer to nitrocellulose.

T2 sequence (P56726 33-793): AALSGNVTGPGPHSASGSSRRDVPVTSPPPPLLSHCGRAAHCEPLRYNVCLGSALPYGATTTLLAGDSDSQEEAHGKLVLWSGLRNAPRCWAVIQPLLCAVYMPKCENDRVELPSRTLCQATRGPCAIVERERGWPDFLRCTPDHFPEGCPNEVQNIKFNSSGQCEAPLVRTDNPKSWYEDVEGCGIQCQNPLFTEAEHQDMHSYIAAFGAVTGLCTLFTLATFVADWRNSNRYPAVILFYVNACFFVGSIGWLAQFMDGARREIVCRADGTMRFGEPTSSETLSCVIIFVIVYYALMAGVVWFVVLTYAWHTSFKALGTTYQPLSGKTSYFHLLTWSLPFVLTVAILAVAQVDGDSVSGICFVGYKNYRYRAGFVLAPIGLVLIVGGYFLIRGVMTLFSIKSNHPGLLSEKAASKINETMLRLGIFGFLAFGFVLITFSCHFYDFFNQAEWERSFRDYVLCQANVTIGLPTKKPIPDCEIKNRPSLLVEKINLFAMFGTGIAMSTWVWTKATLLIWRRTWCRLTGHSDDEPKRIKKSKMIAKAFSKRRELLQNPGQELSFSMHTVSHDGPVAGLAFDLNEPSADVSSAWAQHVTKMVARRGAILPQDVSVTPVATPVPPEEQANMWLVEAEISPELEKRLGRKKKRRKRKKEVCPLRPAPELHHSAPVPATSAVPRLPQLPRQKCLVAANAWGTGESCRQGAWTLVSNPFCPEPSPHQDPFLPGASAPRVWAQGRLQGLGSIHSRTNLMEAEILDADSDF
T3 sequence (P56726 33-793 W539L): as the sequence (P56726 33-793) above, with W507L counted along it
T4 sequence (P56726 with tags, fused parts or gaps DEL68-182): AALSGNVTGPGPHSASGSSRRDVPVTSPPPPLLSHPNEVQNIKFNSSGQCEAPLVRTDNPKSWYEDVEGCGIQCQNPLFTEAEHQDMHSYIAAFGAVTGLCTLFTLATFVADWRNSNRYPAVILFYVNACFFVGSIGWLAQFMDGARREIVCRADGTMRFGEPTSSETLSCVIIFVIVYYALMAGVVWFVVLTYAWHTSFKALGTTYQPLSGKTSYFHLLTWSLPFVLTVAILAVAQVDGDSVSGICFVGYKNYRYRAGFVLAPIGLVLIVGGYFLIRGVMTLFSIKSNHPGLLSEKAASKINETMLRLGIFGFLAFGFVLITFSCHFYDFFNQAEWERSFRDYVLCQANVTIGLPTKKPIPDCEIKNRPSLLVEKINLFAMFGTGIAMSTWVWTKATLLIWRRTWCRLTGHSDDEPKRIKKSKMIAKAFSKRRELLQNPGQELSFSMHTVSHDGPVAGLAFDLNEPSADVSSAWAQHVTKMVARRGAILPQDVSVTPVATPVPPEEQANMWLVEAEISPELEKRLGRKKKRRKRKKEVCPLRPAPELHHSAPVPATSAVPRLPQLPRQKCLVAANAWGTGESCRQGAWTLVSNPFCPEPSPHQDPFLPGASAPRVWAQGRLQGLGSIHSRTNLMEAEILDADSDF
T1 sequence (P56726 33-793 W539L): as the sequence (P56726 33-793) above, with W507L counted along it
T6 sequence (P56726 33-793 W539L): as the sequence (P56726 33-793) above, with W507L counted along it

For the compound PA-cyclopamine, the “photoaffinity cross-linking of SmoA1” value in [1] is “unable to efficiently cross-link”. In [2] (Shh-LIGHT2 mouse cultured cell assay, read-out: IC50, inhibition of Shh signaling), the pIC50 was 6.82. Besides, the “photoaffinity labeling of Smo-Myc3 (two forms)” value in data set [3] (Cos-1 cells transiently transfected, upon photoactivation) is given as “readily labeled”. The “photoaffinity labeling of endogenous mouse Smo” value in [3] (live NTH-3T3 cells, light activation) is recorded as “did not detectably label”.
For `CNC1CCC(N(Cc2cccc(-c3ccncc3)c2)C(=O)c2sc3ccccc3c2Cl)CC1` (stereo not drawn) [SAG], the “ER-localization of SmoA1-GFP” value in [4] (1 μM) is “reversed”.
With `CC1=C2C[C@H]3[C@@H](CC=C4C[C@@H](O)CC[C@@]43C)[C@@H]2CC[C@]12O[C@@H]1C[C@H](C)CN[C@H]1[C@H]2C` [cyclopamine, reference compound], the pIC50 in [2] (Mus musculus, Shh Light2, read-out: IC50, inhibition of Shh signaling) was 6.52. The “observable toxicity in treated animals” value in [5] is reported as “absence of observable toxicity”.
With `CC1=C2C[C@H]3[C@@H](CC=C4CC(=O)CC[C@@]43C)[C@@H]2CC[C@]12O[C@@H]1C[C@H](C)CN(CCNC(=O)CCCCCNC(=O)CCc3ccccc3)[C@H]1[C@H]2C` [KAAD-cyclopamine], the “inhibition of BODIPY-cyclopamine binding to cells expressing SmoΔCRD” value in data set [6] is on record as “inhibited”. The “inhibition of BODIPY-cyclopamine binding to cells expressing wildtype Smo” value in [7] (150 nM KAAD-cyclopamine) is on record as “inhibited”. The pKd in data set [7] (competition of 5 nM BODIPY-cyclopamine binding, flow cytometry, Cos-1 cells, read-out: apparent dissociation constant (Kd), KAAD-cyclopamine/Smo complex) was 7.64. Also, in data set [8], the “inhibition of BODIPY-cyclopamine binding to cells expressing SmoΔCT” value is on record as “inhibited”. In addition, the “ER-localization of SmoA1-GFP” value in data set [4] (10 μM) was “reversed”. Moreover, the “competition of PA-cyclopamine labeling of Smo-Myc3” value in data set [3] (1.5 μM KAAD-cyclopamine, Cos-1 cells) is reported as “inhibited”. Further, the pIC50 in data set [9] was 7.70. In data set [10], the “shift in SmoA1 glycosylation state (endo H)” value is recorded as “partial conversion of SmoA1 to an endo H-resistant form”.
